Test results published in patent US6413935B1, “Induction of immune response against desired determinants” (priority 1993, dated 2002).
pIC50: −log10 of the molar value. Where two headings read alike, the source gives them in different places. Non-standard residues stand in square brackets, D forms with d. Residues, ends and D or L forms follow the SMILES beside them. Cha = N[C@@H](CC1CCCCC1)C(=O)O

Columns and labels:
DR7 = settings: read-out: PADRE Class II Binding Affinities DR7
DQ3.1 = settings: for pIC50: read-out: PADRE Class II Binding Affinities, Table VIII A
DR5 = settings: read-out: PADRE Class II Binding Affinities DR5
human PBMC T cell lines = assay type: cell-based

SMILES	pIC50 (DR7; Table VIII A)	pIC50 (DQ3.1)	pIC50 (DR5; Table VIII A)	pIC50 (DR7)	pIC50 (DR5)	Increase in DQ3.1 binding reactivity (DQ3.1; relative to parent 760.57)	Donors with significant (>10,000 cpm) T cell response / donors tested, second stimulation (human PBMC T cell lines)	Donors with significant (>10,000 cpm) T cell response / donors tested, third stimulation (human PBMC T cell lines)
CC(C)C[C@H](NC(=O)[C@@H](NC(=O)[C@H](CCC(=O)O)NC(=O)[C@H](C)NC(=O)[C@H](C)NC(=O)[C@H](C)NC(=O)[C@H](CC1CCCCC1)NC(=O)[C@H](C)NC(=O)[C@@H](C)N)[C@@H](C)O)C(=O)N[C@@H](CCCCN)C(=O)N[C@@H](C)C(=O)N[C@@H](C)C(=O)N[C@H](C)C(N)=O [Peptide 906.24]	6.43	7.33	7.95	–	–	–	–	–
CC(C)C[C@H](NC(=O)[C@@H](NC(=O)[C@H](C)NC(=O)[C@H](C)NC(=O)[C@H](C)NC(=O)[C@H](C)NC(=O)[C@H](CC1CCCCC1)NC(=O)[C@H](C)NC(=O)[C@@H](C)N)[C@@H](C)O)C(=O)N[C@@H](CCCCN)C(=O)N[C@@H](C)C(=O)N[C@H](C(=O)N[C@H](C)C(N)=O)C(C)C [Peptide 906.49] (H-[dA]A[Cha]AAAATLKAV[dA]-NH2; N-terminus and C-terminus assumed)	7.55	7.84	8.35	–	–	–	–	–
CC(C)C[C@H](NC(=O)[C@@H](NC(=O)[C@H](C)NC(=O)[C@H](C)NC(=O)[C@H](C)NC(=O)[C@H](C)NC(=O)[C@H](CC1CCCCC1)NC(=O)[C@H](C)NC(=O)[C@@H](C)N)[C@@H](C)O)C(=O)N[C@@H](CCCNC(=N)N)C(=O)N[C@@H](C)C(=O)N[C@@H](C)C(=O)N[C@H](C)C(N)=O [Peptide 906.39] (H-[dA]A[Cha]AAAATLRAA[dA]-NH2; N-terminus and C-terminus assumed)	–	7.54	–	7.06	8.37	–	–	–
CC(C)C[C@H](NC(=O)[C@@H](NC(=O)[C@H](CCCCN)NC(=O)[C@H](C)NC(=O)[C@H](C)NC(=O)[C@H](C)NC(=O)[C@H](CC1CCCCC1)NC(=O)[C@H](C)NC(=O)[C@@H](C)N)[C@@H](C)O)C(=O)N[C@@H](CCCCN)C(=O)N[C@@H](C)C(=O)N[C@@H](C)C(=O)N[C@H](C)C(N)=O [Peptide 906.23]	–	7.58	–	7.53	8.66	–	–	–
C[C@H](NC(=O)[C@H](C)NC(=O)[C@H](C)NC(=O)[C@H](CC1CCCCC1)NC(=O)[C@H](C)NC(=O)[C@@H](C)N)C(=O)N[C@@H](C)C(=O)N[C@H](C(=O)N[C@@H](Cc1ccccc1)C(=O)N[C@@H](CCCCN)C(=O)N[C@@H](C)C(=O)N[C@@H](C)C(=O)N[C@H](C)C(N)=O)[C@@H](C)O [Peptide 906.33]	7.37	7.87	8.62	–	–	–	–	–
CC(C)C[C@H](NC(=O)[C@@H](NC(=O)[C@H](C)NC(=O)[C@H](C)NC(=O)[C@H](C)NC(=O)[C@H](C)NC(=O)[C@H](CC1CCCCC1)NC(=O)[C@H](C)NC(=O)[C@@H](C)N)[C@@H](C)O)C(=O)N[C@@H](CCCCN)C(=O)N[C@@H](C)C(=O)N[C@@H](CCC(N)=O)C(=O)N[C@H](C)C(N)=O [Peptide 906.48] (H-[dA]A[Cha]AAAATLKAQ[dA]-NH2; N-terminus and C-terminus assumed)	7.02	7.74	7.70	–	–	–	–	–
C[C@H](NC(=O)[C@H](C)NC(=O)[C@H](C)NC(=O)[C@H](CC1CCCCC1)NC(=O)[C@H](C)NC(=O)[C@@H](C)N)C(=O)N[C@@H](C)C(=O)N[C@H](C(=O)N[C@@H](CCC(N)=O)C(=O)N[C@@H](CCCCN)C(=O)N[C@@H](C)C(=O)N[C@@H](C)C(=O)N[C@H](C)C(N)=O)[C@@H](C)O [Peptide 906.31]	7.00	7.28	7.93	–	–	–	–	–
CC[C@H](C)[C@H](NC(=O)[C@H](CCCCN)NC(=O)[C@H](CC(C)C)NC(=O)[C@@H](NC(=O)[C@H](C)NC(=O)[C@H](C)NC(=O)[C@H](C)NC(=O)[C@H](C)NC(=O)[C@H](CC1CCCCC1)NC(=O)[C@H](C)NC(=O)[C@@H](C)N)[C@@H](C)O)C(=O)N[C@@H](C)C(=O)N[C@H](C)C(N)=O [Peptide 906.45] (H-[dA]A[Cha]AAAATLKIA[dA]-NH2; N-terminus and C-terminus assumed)	7.60	7.25	7.55	–	–	–	–	–
CC(C)C[C@H](NC(=O)[C@@H](NC(=O)[C@H](C)NC(=O)[C@H](C)NC(=O)[C@H](C)NC(=O)[C@H](C)NC(=O)[C@H](CC1CCCCC1)NC(=O)[C@H](C)NC(=O)[C@@H](C)N)[C@@H](C)O)C(=O)N[C@@H](CCC(N)=O)C(=O)N[C@@H](C)C(=O)N[C@@H](C)C(=O)N[C@H](C)C(N)=O [Peptide 906.36]	–	7.63	8.08	–	–	–	–	–
CC[C@H](C)[C@H](NC(=O)[C@@H](NC(=O)[C@H](C)NC(=O)[C@H](C)NC(=O)[C@H](C)NC(=O)[C@H](C)NC(=O)[C@H](CC1CCCCC1)NC(=O)[C@H](C)NC(=O)[C@@H](C)N)[C@@H](C)O)C(=O)N[C@@H](CCCCN)C(=O)N[C@@H](C)C(=O)N[C@@H](C)C(=O)N[C@H](C)C(N)=O [Peptide 906.34]	7.25	7.52	8.51	–	–	–	–	–
CC(C)C[C@H](NC(=O)[C@@H](NC(=O)[C@H](C)NC(=O)[C@H](C)NC(=O)[C@H](C)NC(=O)[C@H](C)NC(=O)[C@H](CC1CCCCC1)NC(=O)[C@H](C)NC(=O)[C@@H](C)N)[C@@H](C)O)C(=O)N[C@@H](CCCCN)C(=O)N[C@@H](CCCCN)C(=O)N[C@@H](C)C(=O)N[C@H](C)C(N)=O [Peptide 906.40] (H-[dA]A[Cha]AAAATLKKA[dA]-NH2; N-terminus and C-terminus assumed)	6.26	7.44	7.78	–	–	–	–	–
CC(C)C[C@H](NC(=O)[C@@H](NC(=O)[C@H](CCC(N)=O)NC(=O)[C@H](C)NC(=O)[C@H](C)NC(=O)[C@H](C)NC(=O)[C@H](CC1CCCCC1)NC(=O)[C@H](C)NC(=O)[C@@H](C)N)[C@@H](C)O)C(=O)N[C@@H](CCCCN)C(=O)N[C@@H](C)C(=O)N[C@@H](C)C(=O)N[C@H](C)C(N)=O [Peptide 906.25]	–	7.37	8.52	–	–	–	–	–
C[C@H](NC(=O)[C@H](C)NC(=O)[C@H](C)NC(=O)[C@H](CC1CCCCC1)NC(=O)[C@H](C)NC(=O)[C@@H](C)N)C(=O)N[C@@H](C)C(=O)N[C@H](C(=O)N[C@@H](CCCCN)C(=O)N[C@@H](CCCCN)C(=O)N[C@@H](C)C(=O)N[C@@H](C)C(=O)N[C@H](C)C(N)=O)[C@@H](C)O [Peptide 906.29] (H-[dA]A[Cha]AAAATKKAA[dA]-NH2; N-terminus and C-terminus assumed)	–	6.55	8.11	–	–	no reactivity was gained	–	–
CC(C)C[C@H](NC(=O)[C@@H](NC(=O)[C@@H](NC(=O)[C@H](C)NC(=O)[C@H](C)NC(=O)[C@H](C)NC(=O)[C@H](CC1CCCCC1)NC(=O)[C@H](C)NC(=O)[C@@H](C)N)C(C)C)[C@@H](C)O)C(=O)N[C@@H](CCCCN)C(=O)N[C@@H](C)C(=O)N[C@@H](C)C(=O)N[C@H](C)C(N)=O [Peptide 906.26] (H-[dA]A[Cha]AAAVTLKAA[dA]-NH2; N-terminus and C-terminus assumed)	7.18	7.55	8.41	–	–	–	–	–
CC(C)C[C@H](NC(=O)[C@@H](NC(=O)[C@H](C)NC(=O)[C@H](C)NC(=O)[C@H](C)NC(=O)[C@H](C)NC(=O)[C@H](CC1CCCCC1)NC(=O)[C@H](C)NC(=O)[C@@H](C)N)[C@@H](C)O)C(=O)N[C@@H](CCCCN)C(=O)N[C@H](C(=O)N[C@@H](C)C(=O)N[C@H](C)C(N)=O)C(C)C [Peptide 906.43] (H-[dA]A[Cha]AAAATLKVA[dA]-NH2; N-terminus and C-terminus assumed)	7.31	7.61	8.02	–	–	–	–	–
CC(C)C[C@H](NC(=O)[C@@H](NC(=O)[C@H](C)NC(=O)[C@H](C)NC(=O)[C@H](C)NC(=O)[C@@H](NC(=O)[C@H](CC1CCCCC1)NC(=O)[C@H](CCCCN)NC(=O)[C@@H](C)N)C(C)C)[C@@H](C)O)C(=O)N[C@@H](CCCCN)C(=O)N[C@@H](C)C(=O)N[C@@H](C)C(=O)N[C@H](C)C(N)=O [Peptide 965.16]	–	–	–	–	–	–	0/5	1/5
CC(C)C[C@H](NC(=O)[C@@H](NC(=O)[C@H](C)NC(=O)[C@H](Cc1ccccc1)NC(=O)[C@H](C)NC(=O)[C@H](C)NC(=O)[C@H](CC1CCCCC1)NC(=O)[C@H](C)NC(=O)[C@@H](C)N)[C@@H](C)O)C(=O)N[C@@H](CCCCN)C(=O)N[C@@H](C)C(=O)N[C@@H](C)C(=O)N[C@H](C)C(N)=O [Peptide 906.22] (H-[dA]A[Cha]AAFATLKAA[dA]-NH2; N-terminus and C-terminus assumed)	–	5.73	–	7.23	8.47	–	–	–
CC(C)C[C@H](NC(=O)[C@@H](NC(=O)[C@@H](NC(=O)[C@H](C)NC(=O)[C@H](C)NC(=O)[C@H](C)NC(=O)[C@H](CC1CCCCC1)NC(=O)[C@H](C)NC(=O)[C@@H](C)N)[C@@H](C)O)[C@@H](C)O)C(=O)N[C@@H](CCCCN)C(=O)N[C@@H](C)C(=O)N[C@@H](C)C(=O)N[C@H](C)C(N)=O [Peptide 906.28]	7.16	7.55	8.30	–	–	–	–	–
CC(C)[C@H](NC(=O)[C@@H](NC(=O)[C@H](C)NC(=O)[C@H](C)NC(=O)[C@H](C)NC(=O)[C@H](C)NC(=O)[C@H](CC1CCCCC1)NC(=O)[C@H](C)NC(=O)[C@@H](C)N)[C@@H](C)O)C(=O)N[C@@H](CCCCN)C(=O)N[C@@H](C)C(=O)N[C@@H](C)C(=O)N[C@H](C)C(N)=O [Peptide 906.32]	–	7.59	–	7.24	8.38	–	–	–
CC(C)C[C@H](NC(=O)[C@@H](NC(=O)[C@H](C)NC(=O)[C@H](C)NC(=O)[C@H](C)NC(=O)[C@H](C)NC(=O)[C@H](CC1CCCCC1)NC(=O)[C@H](C)NC(=O)[C@@H](C)N)[C@@H](C)O)C(=O)N[C@@H](CCC(=O)O)C(=O)N[C@@H](C)C(=O)N[C@@H](C)C(=O)N[C@H](C)C(N)=O [Peptide 906.35]	–	7.40	7.98	–	–	–	–	–
CC(C)C[C@H](NC(=O)[C@@H](NC(=O)[C@H](Cc1ccccc1)NC(=O)[C@H](C)NC(=O)[C@H](C)NC(=O)[C@H](C)NC(=O)[C@H](CC1CCCCC1)NC(=O)[C@H](C)NC(=O)[C@@H](C)N)[C@@H](C)O)C(=O)N[C@@H](CCCCN)C(=O)N[C@@H](C)C(=O)N[C@@H](C)C(=O)N[C@H](C)C(N)=O [Peptide 906.27]	7.18	7.36	8.59	–	–	–	–	–
